Laboratory results published in patent EP0749423B1, “PIPERIDINES AND PYRROLIDINES” (NOVO NORDISK A/S, priority 1994, dated 1995).
Where two headings read alike, the source gives them in different places.

Key:
liver α-1,6-glucosidase = molecular target: T1, liver α-1,6-glucosidase (Homo sapiens, UniProt P35573); assay: Glycogen debranching enzyme activity (Brown and Brown method); assay type: biochemical; conditions: read-out: I.C.50 liver α-1,6-glucosidase
T1 construct: from tissue

cultured liver cells = assay: Glucose production from cultured rat hepatocytes (basal and glucagon stimulated glycogenolysis); assay type: cell-based; conditions: Hepatocyte; for activity at 32 µM / activity at 50 µM: 70 min, glucose in medium after 70 minutes; for activity at 32 µM: test compound 32µM; for activity at 50 µM: test compound 50µM
Experimental: During the last 24 hours, the hepatocytes were cultured in the presence of high levels of insulin (5 nM) and glucose (15 mM), which result in the incorporation of glucose into glycogen. Therefore, at the time of the experiment, the cells mimic livers from fed animals. Experiments were initiated after 72 hours of culture by 2 times wash of cells and addition of a 20 mM HEPES experimental buffer including balanced salts, but without glucose. The test compound was added simultaneously with the experimental buffer. To some cultures, glucagon (0.5 nM) was added after 10 minutes in order to stimulate glucose production from liver cells. The glucose released into the media, reflecting the glucose production of the liver cells, was measured 70 minutes after the start of the experiment and standardized to cellular DNA content.

Phosphorylase = conditions: read-out: I.C.50 Phosphorylase; phosphorylase purchased from Sigma or extracted from rat livers
[1] = relative to basal glucose production (no addition with glucagon = 283%), read-out: Glucose production With glucagon (0.5nM)
[2] = basal, without glucagon, read-out: I.C.50 Liver cell glucose production: Basal
[3] = read-out: I.C.50 Liver cell glucose production: Glucagon stimulated

T1 sequence (P35573 whole entry): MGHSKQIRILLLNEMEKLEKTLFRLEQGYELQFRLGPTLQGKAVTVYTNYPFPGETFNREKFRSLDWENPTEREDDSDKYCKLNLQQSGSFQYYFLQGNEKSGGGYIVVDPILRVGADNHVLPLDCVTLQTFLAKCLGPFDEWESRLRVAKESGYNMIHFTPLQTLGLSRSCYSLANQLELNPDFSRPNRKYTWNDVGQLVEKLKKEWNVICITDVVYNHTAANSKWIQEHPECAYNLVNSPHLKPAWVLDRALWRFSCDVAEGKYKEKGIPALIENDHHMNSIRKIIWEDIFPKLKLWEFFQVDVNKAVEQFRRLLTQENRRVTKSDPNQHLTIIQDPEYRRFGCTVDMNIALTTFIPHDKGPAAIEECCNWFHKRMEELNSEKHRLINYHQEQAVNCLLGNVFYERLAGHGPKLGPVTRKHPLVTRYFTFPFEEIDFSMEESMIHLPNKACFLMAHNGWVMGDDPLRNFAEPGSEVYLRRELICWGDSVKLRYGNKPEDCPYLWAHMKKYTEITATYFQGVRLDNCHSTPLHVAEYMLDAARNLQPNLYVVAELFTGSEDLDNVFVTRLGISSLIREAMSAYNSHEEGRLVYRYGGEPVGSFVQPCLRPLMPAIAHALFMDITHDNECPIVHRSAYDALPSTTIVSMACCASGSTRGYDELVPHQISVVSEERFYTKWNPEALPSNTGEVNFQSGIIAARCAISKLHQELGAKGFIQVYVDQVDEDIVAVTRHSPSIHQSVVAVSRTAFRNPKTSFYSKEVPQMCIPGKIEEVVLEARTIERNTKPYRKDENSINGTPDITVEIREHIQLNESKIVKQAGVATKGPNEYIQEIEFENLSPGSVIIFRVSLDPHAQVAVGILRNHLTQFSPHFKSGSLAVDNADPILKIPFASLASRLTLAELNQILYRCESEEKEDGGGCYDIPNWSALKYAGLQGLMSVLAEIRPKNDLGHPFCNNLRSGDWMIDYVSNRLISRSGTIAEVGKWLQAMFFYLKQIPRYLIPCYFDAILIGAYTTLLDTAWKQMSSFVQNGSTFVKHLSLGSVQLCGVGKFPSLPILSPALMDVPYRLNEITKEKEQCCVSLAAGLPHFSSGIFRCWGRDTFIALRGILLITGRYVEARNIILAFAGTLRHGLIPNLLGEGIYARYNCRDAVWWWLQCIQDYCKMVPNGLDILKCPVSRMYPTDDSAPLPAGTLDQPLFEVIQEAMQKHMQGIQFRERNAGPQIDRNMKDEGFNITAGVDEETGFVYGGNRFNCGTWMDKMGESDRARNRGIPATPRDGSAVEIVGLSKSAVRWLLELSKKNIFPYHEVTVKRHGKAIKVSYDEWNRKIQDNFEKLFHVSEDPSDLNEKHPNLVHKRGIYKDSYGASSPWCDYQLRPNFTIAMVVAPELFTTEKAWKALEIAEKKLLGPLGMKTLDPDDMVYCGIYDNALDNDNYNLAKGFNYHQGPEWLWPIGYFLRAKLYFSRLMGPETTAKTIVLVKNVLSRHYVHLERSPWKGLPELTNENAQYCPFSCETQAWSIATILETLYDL

Structure (SMILES) | IC50 (liver α-1,6-glucosidase) [µM] | activity at 32 µM (cultured liver cells; relative to basal glucose production (no addition = 100 %), standardized to DNA, read-out: Glucose production Without glucagon) [%] | activity at 32 µM (cultured liver cells; [1]) [%] | IC50 (cultured liver cells; [2]) [µM] | IC50 (cultured liver cells; [3]) [µM] | activity at 50 µM (cultured liver cells; relative to basal glucose production (no addition = 100 %), read-out: Glucose production Without glucagon) [%] | activity at 50 µM (cultured liver cells; [1]) [%] | IC50 (Phosphorylase) [µM]
OC[C@H]1CNC[C@@H](O)[C@@H]1O [Example 1, (3R,4R,5R)-3,4-dihydroxy-5-hydroxymethylpiperidine] | 77 | 17 | 32 | 1.3 | 1.6 |  |  | 
OC[C@H]1NC[C@H](O)[C@@H](O)[C@@H]1O [1-deoxynojirimycin] | 2.4 |  |  | > 100 | > 100 | 89 | 237 | > 200
